Marks after values point to notes of the source that are not given here.
Experiments:
[1] = test system: soybean; test: Greenhouse experiment: methanol sprayed on soybean plants from cured (PPFMs absent) or untreated (PPFMs present) seeds, plant dry weight; format: in vivo; conditions: for Mean dry weight +/− SD: methanol 0.5 ml per plant, harvested 2 weeks after spraying; for % gain over controls (dry weight): vs zero-time control
Experimental: Application of PPFMs to plants was performed in accordance with the methods detailed in U.S. Pat. No. 5,512,069. Application of methanol to plants was performed in accordance with U.S. Patent No. 5,532,204.
Soybeans were treated with dry heat before planting to lower the population of PPFMs on them (see U.S. Pat. No. 5,512,069). Untreated seeds served as controls.
To test whether the presence of PPFM bacteria is required for foliar applications of methanol to be effective, greenhouse experiments were conducted. Seeds of soybean were cured of their PPFM bacteria with dry heat as previously described (Holland et al, 1992, Plant Physiol 98:942-948)). Cured and untreated seeds wee then plated in the greenhouse in a soil-less potting medium (Pro-Mix BX), Premier Horticulture Inc.). During germination, and while the seedlings established themselves, all plants were watered freely. After 4 weeks, both cured and untreated plants were divided into two groups (each group consisting of approximately 10 pots of 5 plants). One group of cured seedlings and one group of untreated seedlings were maintained as before under freely-watered conditions. […] After 2 weeks, half of the plants in each test group were harvested and dried to constant weight (a zero-time control). The remaining plants were sprayed with methanol (0.5 ml per plant) from an atomizer and were allowed to continue growing under their respective watering regimes for an additional 2 weeks. At the end of this period, all remaining plants were harvested and dried to constant weight.

[2] = test system: soybean (Glycine max (L.) Merr. cv. 'Corsica'); test: Field experiments: foliar applications on soybean, seed yield by weight; format: in vivo
Experimental: To test the effects of foliar applications of methanol on soybean (Glycine max (L.) Merr. cv. ‘Corsica’ (maturity group IV)), field experiments were conducted over three years. In the first year, methanol at 0, 62.5 and 125 liters×ha^−1 was combined with urea nitrogen at 0, 12.5 and 25 kg×ha^−1 and sprayed with distilled water in a total volume of 500 liters×ha^−1 on test plants at the R5 stage of development. Latron B-1956 (Rohm and Haas) surfactant at 0.1% was included in all treatments. Treatments were applied from a knapsack sprayer in a randomized complete block design with four replications. Test blocks measured 5m×1.52m (7.6m^2). Plants were harvested by hand, threshed, and seed yield determined by weight. All seed weights are reported at 13% moisture content. […] To test whether PPFMS applied to leaves can substitute for methanol, spray applications of the bacterial alone and in combination with methanol were included in field experiments in the third year. […] The bacteria used in these treatments were isolated from soybean seed coat on plates of AMS medium. From a single bacterial colony, a liquid culture in the same medium was established and used to inoculate 12 liter batches of the bacteria in a Microferm fermentor (New Brunswick Scientific). Cells were harvested by centrifugation and resuspended in distilled water for application to plants in the field.

[3] = test system: C3 crop plants; conditions: foliar sprays of aqueous (10-50%) methanol, arid environments; cited from earlier work
[4] = non-stressed (freely watered), PPFMs present
[5] = stress (wilting) conditions, PPFMs present
[6] = second year, M1 = 62.5 liters × ha^−1 methanol, N1 = 12.5 kg × ha^−1 urea

SMILES | effect of methanol application on plant dry weight (a measure of yield) ([1]; non-stressed (freely watered) conditions, regardless of whether PPFMs are present) | Mean dry weight +/− SD ([1]; non-stressed (freely watered), PPFMs absent (cured seeds)) [g] | % gain over controls (dry weight) ([1]; non-stressed (freely watered), PPFMs absent (cured)) [%] | Mean dry weight +/− SD [1, 4] [g] | % gain over controls (dry weight) [1, 4] [%] | growth (increase in plant dry weight) ([1]; stress (wilting) conditions, only when PPFMs are present) | Mean dry weight +/− SD ([1]; stress (wilting) conditions, PPFMs absent (cured seeds)) [g] | % gain over controls (dry weight) ([1]; stress (wilting) conditions, PPFMs absent (cured)) [%] | Mean dry weight +/− SD [1, 5] [g] | % gain over controls (dry weight) [1, 5] [%] | Yield (seed yield) ([2]; first year, M2N0: 125 liters × ha^−1 methanol, 0 urea, sprayed at R5) | Yield (seed yield) [2, 6] | growth and yield [3] | Yield (seed yield) ([2]; first year, M0N1: 0 methanol, 12.5 kg × ha^−1 urea, sprayed at R5) | Yield (seed yield) ([2]; first year, M0N2: 0 methanol, 25 kg × ha^−1 urea, sprayed at R5)
CO [methanol] | does not affect plant dry weight | 5.03 ± 1.19 | 80 | 6.85 ± 1.69 | 78 | improves growth | 2.69 ± 0.65 | 6 | 4.64 ± 0.72 | 65 | 2.28 | 2.4* | increased growth and yield |  | 
NC(N)=O [urea] |  |  |  |  |  |  |  |  |  |  |  | 2.4 |  | 2.18 | 2.15

From US20010001095A1, “Method for treating plants” (University of Maryland Eatern Shore, priority 1996, published 2001)
